From ChEMBL document CHEMBL3813693, “Gastroprotective effects of new diterpenoid derivatives from Azorella cuatrecasasii Mathias & Constance obtained using a β-cyclodextrin complex with microbial and chemical transformations” (2016)

What was measured:
Mus musculus [1] = test: Gastroprotective activity in Swiss albino mouse assessed as reduction in HCl/EtOH-induced gastric lesions at 20 mg/kg, po dosed 50 mins before HCl/EtOH challenge measured after 1 hr relative to control; format: functional; conditions: Stomach
Mus musculus [2] = test: Gastroprotective activity in Swiss albino mouse model of HCl/EtOH-induced ulcer assessed as lesion index at 20 mg/kg, po dosed 50 mins before HCl/EtOH challenge measured after 1 hr (reference value: 37.7 +/- 4.3 millimeter); format: functional

Row | SMILES | inhibition in vivo at 20 mg/kg (Mus musculus [1]) [%] | UI (Mus musculus [2]) [mm]
1 | COC(=O)[C@]12CC[C@@]3(C)CC=C(CO)C=C[C@H]3[C@@H]1CC[C@@H]2C(C)C | 18 | 31
2 | COC(=O)[C@]12CC[C@@]3(C)CC=C(COC(C)=O)C=C[C@H]3[C@@H]1CC[C@@H]2C(C)C | 3 | 36.8
3 | CC(=O)OCC1=CC[C@]2(C)[C@H](OC(C)=O)C[C@]3(C(=O)O)[C@@H](C(C)C)CC[C@H]3[C@@H]2C=C1 | 48 | 19.6
4 | COC(=O)[C@]12C[C@@H](O)[C@@]3(C)CC=C(CO)C=C[C@H]3[C@@H]1CC[C@@H]2C(C)C | 36 | 24.3
5 | CC(C)[C@H]1CC[C@H]2[C@@H]3C=CC(CO)=CC[C@]3(C)CC[C@]12C(=O)O | 59 | 15.4
6 | CC(=O)OCC1=CC[C@]2(C)CC[C@]3(C(=O)O)[C@@H](C(C)C)CC[C@H]3[C@@H]2C=C1 | 43 | 21.6
7 | COC(=O)[C@]12C[C@@H](OC(C)=O)[C@@]3(C)CC=C(COC(C)=O)C=C[C@H]3[C@@H]1CC[C@@H]2C(C)C | 6 | 35.6
8 | CC(C)[C@H]1CC[C@H]2[C@@H]3C=CC(CO)=CC[C@]3(C)[C@H](O)C[C@]12C(=O)O | 69 | 11.8
9 | Cc1c(OCC(F)(F)F)ccnc1C[S+]([O-])c1nc2ccccc2[nH]1 (stereo not drawn) [LANSOPRAZOLE] | 57 | 16.1
